The values below come from patent US10918623B2, “Methods of treating influenza” (Biotron Limited, priority 2017, dated 2021).

Data set [1] has as its system influenza. As to conditions: human, in vivo; cited from earlier work.
Data set [2] concerns Influenza A (H1N1). Format: cell-based.
Data set [3] deals with Influenza A (H3N2). Format: cell-based.
Data set [4] concerns PR8 wild-type influenza A virus. Put plainly: microbe, parasite or virus in culture. Format: cell-based. As to conditions: PR8, MDCK.
Data set [5] relates to SHIV-1SCVpu (ion channel sequence of HIV-1 Vpu). Format: cell-based.
Data set [6] has as its system SHIV-1PND2. Format: cell-based.
The test system of data set [7] is MDCK cells. The settings on record: dog.
Data set [8] has as its target M2 viroporin of influenza A (Influenza A virus, UniProt P06821). The settings on record: cited from earlier work.
Data set [9] in a line: in vitro. As to conditions: dog.

Sequence of M2 viroporin of influenza A (P06821 whole entry, looked up): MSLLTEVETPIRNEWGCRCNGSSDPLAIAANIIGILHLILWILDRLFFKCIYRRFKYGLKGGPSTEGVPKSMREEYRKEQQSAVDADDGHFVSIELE

Consider `CCOC(=O)C1=C[C@@H](OC(CC)CC)[C@H](NC(C)=O)[C@@H](N)C1` [oseltamivir], for which the “Reduction of time to alleviation of symptoms of influenza” value in data set [1] was 16.8 h.
Regarding `Cn1cc(-c2cccc3cc(C(=O)NC(=N)N)ccc23)cn1` [BIT225, N-carbamimidoyl-5-(1-methyl-1H-pyrazol-4-yl)-2-naphthamide], the Comments entry in [2] was “Active”. For the same compound, the Comments result in data set [3] is recorded as “Active”. In addition, in [4], the EC50 is around 10 µM and the 90% effect level (EC90) was put at 12 µM. Further, the “Virus released into the culture supernatant as measured by viral p27 protein” value in data set [5] was “reduced virus released”. In data set [6], the Virus replication entry is reported as “does not significantly reduce virus replication”. The “Toxic effects (no toxic effects up to)” value in data set [7] is above 100 µM. Besides, in data set [8], the “Activity against the M2 viroporin of influenza A” value is recorded as “only limited activity”. In data set [9], this compound registered a CC50 of 32 µM.
